Assay results reported in US20240279215A1 (Cytokinetics, Incorporated, priority 2022, published 2024).

Target: human NAMPT (Homo sapiens (Human), UniProt P43490)
Test: NMN fluorescence biochemical assay (human recombinant NAMPT enzyme assay)
In short: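 Activation of recombinant human NAMPT (6 nM) was tested with 2.5 mM ATP, 20 μM PRPP and 150 μM nicotinamide in 50 mM HEPES pH 7.2 for 60 min at ambient temperature. NMN was derivatized with acetophenone/KOH/formic acid and read by fluorescence (355/460 nm) after 40 min.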

human NAMPT, sequence (P43490 whole entry): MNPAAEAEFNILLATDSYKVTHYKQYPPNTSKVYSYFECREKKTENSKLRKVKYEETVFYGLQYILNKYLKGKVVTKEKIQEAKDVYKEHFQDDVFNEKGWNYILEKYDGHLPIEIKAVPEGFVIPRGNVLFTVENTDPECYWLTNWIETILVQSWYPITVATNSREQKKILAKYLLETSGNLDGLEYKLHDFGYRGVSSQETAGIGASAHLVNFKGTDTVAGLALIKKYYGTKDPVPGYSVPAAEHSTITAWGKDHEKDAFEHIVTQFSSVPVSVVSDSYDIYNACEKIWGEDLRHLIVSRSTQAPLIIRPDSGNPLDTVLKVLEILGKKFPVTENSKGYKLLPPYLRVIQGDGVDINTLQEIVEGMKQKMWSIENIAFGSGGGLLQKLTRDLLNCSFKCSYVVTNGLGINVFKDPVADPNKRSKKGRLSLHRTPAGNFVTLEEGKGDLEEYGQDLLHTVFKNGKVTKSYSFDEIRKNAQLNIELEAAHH

Structure (SMILES)	AC1.4 Human [µM]	EC50 [µM]
O=C(Nc1ccc(Cc2ccccc2)cc1)OCc1ccc(Cl)cc1 [Compound 307]	5.02	5.55
O=C(Nc1ccc(C2CCN(C3COC3)CC2)cc1)OCc1cnco1 [Compound 313, 1,3-oxazol-5-ylmethyl N-{4-[1-(oxetan-3-yl)piperidin-4-yl]phenyl}carbamate]	5.55	25.6
O=C(Nc1ccc(CC2CCN(C3COC3)CC2)cc1)OCc1ccncc1 [Compound 316]	6.04	28.6
COc1ccc(COC(=O)Nc2ccc(CN3CCN(C4COC4)CC3)cc2)cc1 [Compound 318, (4-methoxyphenyl)methyl N-(4-{[4-(oxetan-3-yl)piperazin-1-yl]methyl}phenyl)carbamate]	6.26	56.8
O=C(Nc1ccc(CC2CCNCC2)cc1)OCc1cnco1 [Compound 320, oxazol-5-ylmethyl (4-(piperidin-4-ylmethyl)phenyl)carbamate]	6.60	34.2
Cc1nnc(Cc2ccc(NC(=O)OCc3ccc(Cl)cc3)cc2)o1 [Compound 322, (4-chlorophenyl)methyl N-{4-[(5-methyl-1,3,4-oxadiazol-2-yl)methyl]phenyl}carbamate]	7.23	39.3
COc1ccc(COC(=O)Nc2ccc(CN3CC(S(C)(=O)=O)C3)cc2)cc1 [Compound 324, (4-methoxyphenyl)methyl N-{4-[(3-methanesulfonylazetidin-1-yl)methyl]phenyl}carbamate]	7.47	50.9
COc1ccc(COC(=O)Nc2ccc(CN3CCN(C)C(=O)C3)cc2)cc1 [Compound 325, (4-methoxyphenyl)methyl N-{4-[(4-methyl-3-oxopiperazin-1-yl)methyl]phenyl}carbamate]	7.87	51.1
O=C(Nc1ccc(Cc2ccncc2)cc1)OCc1ccnnc1 [Compound 326, pyridazin-4-ylmethyl (4-(pyridin-4-ylmethyl)phenyl)carbamate]	8.05	31.9
Cc1ccc(Cc2ccc(NC(=O)OCc3ccc(C(F)F)cc3)cc2)cn1 [Compound 328, (4-(difluoro-13-methyl)phenyl)methyl (4-((6-methylpyridin-3-yl)methyl)phenyl)carbamate]	8.56	36.3
CC(O)(c1ccncc1)c1ccc(NC(=O)OCc2cncs2)cc1 (stereo not shown) [Compound 329, thiazol-5-ylmethyl (4-(1-hydroxy-1-(pyridin-4-yl)ethyl)phenyl)carbamate]	8.65	33.6
Cc1ccc(Cc2ccc(NC(=O)OCc3ccc(F)cc3)cc2)cn1 [Compound 331, 4-fluorobenzyl (4-((6-methylpyridin-3-yl)methyl)phenyl)carbamate]	8.67	11.9
O=C(Nc1ccc(Cc2ccncc2)cc1)OCc1cnoc1 [Compound 333, isoxazol-4-ylmethyl (4-(pyridin-4-ylmethyl)phenyl)carbamate]	9.58	38.6
CN([C@@H]1CCOC1)S(=O)(=O)c1ccc(NC(=O)OCc2ccc(Cl)cc2)cc1 [Compound 337, 4-chlorobenzyl (R)-(4-(N-methyl-N-(tetrahydrofuran-3-yl)sulfamoyl)phenyl)carbamate]	10.15	26.4
COc1ccc(COC(=O)Nc2ccc([C@H](C)C(=O)N3CCC[C@H]3CO)cc2)cc1 [Compound 341]	11.08	55.6
O=C1CN(C2COC2)[C@@H](c2ccc(NC(=O)OCc3ccc(Cl)cc3)cc2)CN1 [Compound 346, 4-chlorobenzyl (S)-(4-(1-(oxetan-3-yl)-5-oxopiperazin-2-yl)phenyl)carbamate]	13.52	45.3

Now from value to compound:

AC1.4 Human [µM]	EC50 [µM]	Structure (SMILES)
5.08	8.69	O=C(Cc1ccc(NC(=O)OCc2ccc(Cl)cc2)cc1)NC1CCOCC1 [Compound 308, (4-chlorophenyl)methyl N-(4-{[(oxan-4-yl)carbamoyl]methyl}phenyl)carbamate]
5.19	14.9	O=C(Nc1ccc(CNC(=O)N2CCC(F)(F)CC2)cc1)OCc1ccc(Cl)cc1 [Compound 309, (4-chlorophenyl)methyl N-{4-[(4,4-difluoropiperidine-1-carbonylamino)methyl]phenyl}carbamate]
5.29	32.8	O=C(Nc1ccc(CNC(=O)C2COC2)cc1)OCc1ccc(Cl)cc1 [Compound 310, (4-chlorophenyl)methyl N-{4-[(oxetan-3-ylformamido)methyl]phenyl}carbamate]
5.40	26.8	O=C(Cc1cnco1)NCc1ccc(NC(=O)OCc2ccc(Cl)cc2)cc1 [Compound 311, (4-chlorophenyl)methyl N-(4-{[2-(1,3-oxazol-5-yl)acetamido]methyl}phenyl)carbamate]
5.55	39.1	O=C1CN(C(=O)C(F)(F)c2ccc(NC(=O)OCc3ccc(Cl)cc3)cc2)CCN1 [Compound 312, (4-chlorophenyl)methyl N-{4-[1,1-difluoro-2-oxo-2-(3-oxopiperazin-1-yl)ethyl]phenyl}carbamate]
5.75	38.3	Cn1nccc1Cc1ccc(NC(=O)OCc2ccc(Cl)cc2)cc1 [Compound 314, 4-chlorobenzyl (4-((1-methyl-1H-pyrazol-5-yl)methyl)phenyl)carbamate]
5.91	7.32	Cn1cc(CC(=O)NCc2ccc(NC(=O)OCc3ccc(Cl)cc3)cc2)cn1 [Compound 315, (4-chlorophenyl)methyl N-(4-{[2-(1-methylpyrazol-4-yl)acetamido]methyl}phenyl)carbamate]
6.19	32.4	O=C(Nc1ccc(CC(=O)N2CC[C@@H](O)C2)cc1)OCc1ccc(Cl)cc1 [Compound 317, (4-chlorophenyl)methyl N-(4-{2-[(3R)-3-hydroxypyrrolidin-1-yl]-2-oxoethyl}phenyl)carbamate]
6.50	40.8	O=C(Nc1ccc(CC(=O)N2CC[C@H](O)C2)cc1)OCc1ccc(Cl)cc1 [Compound 319, (4-chlorophenyl)methyl N-(4-{2-[(3S)-3-hydroxypyrrolidin-1-yl]-2-oxoethyl}phenyl)carbamate]
6.86	55.7	Cc1ocnc1C(=O)NCc1ccc(NC(=O)OCc2ccc(Cl)cc2)cc1 [Compound 321, (4-chlorophenyl)methyl N-(4-{[(5-methyl-1,3-oxazol-4-yl)formamido]methyl}phenyl)carbamate]
7.41	13.3	Cc1ccc(CNC(=O)Cc2ccc(NC(=O)OCc3ccc(Cl)cc3)cc2)cn1 [Compound 323, (4-chlorophenyl)methyl N-[4-({[(6-methylpyridin-3-yl)methyl]carbamoyl}methyl)phenyl]carbamate]
8.21	21.1	O=C(Nc1ccc(CNC(=O)c2ccnn2C2CCC2)cc1)OCc1ccc(Cl)cc1 [Compound 327, (4-chlorophenyl)methyl N-(4-{[(2-cyclobutylpyrazol-3-yl)formamido]methyl}phenyl)carbamate]
8.66	46.3	O=C(Cc1cnoc1)NCc1ccc(NC(=O)OCc2ccc(Cl)cc2)cc1 [Compound 330, (4-chlorophenyl)methyl N-(4-{[2-(1,2-oxazol-4-yl)acetamido]methyl}phenyl)carbamate]
8.89	50.6	CN1CCN(C(=O)Cc2ccc(NC(=O)OCc3ccc(Cl)cc3)cc2)CC1=O [Compound 332, (4-chlorophenyl)methyl N-{4-[2-(4-methyl-3-oxopiperazin-1-yl)-2-oxoethyl]phenyl}carbamate]
9.87	9.33	O=C(Cn1cccn1)NCc1ccc(NC(=O)OCc2ccc(Cl)cc2)cc1 [Compound 334, (4-chlorophenyl)methyl N-(4-{[2-(pyrazol-1-yl)acetamido]methyl}phenyl)carbamate]
10.07	24.3	O=C(Nc1ccc(Cc2nccs2)cc1)OCc1ccc(Cl)cc1 [Compound 336, 4-chlorobenzyl (4-(thiazol-2-ylmethyl)phenyl)carbamate]
10.44	18.4	O=C(Cc1ccc(NC(=O)OCc2ccc(Cl)cc2)cc1)N[C@H]1CC[C@H](OC(F)(F)F)CC1 [Compound 338, (4-chlorophenyl)methyl N-[4-({[(1r,4r)-4-(trifluoromethoxy)cyclohexyl]carbamoyl}methyl)phenyl]carbamate]
10.65	45.5	O=C(Cc1ccc(NC(=O)OCc2ccc(Cl)cc2)cc1)NC1COC1 [Compound 339, 4-chlorobenzyl (4-(2-(oxetan-3-ylamino)-2-oxoethyl)phenyl)carbamate]
10.65	45.6	Cc1ocnc1C(=O)N(C)Cc1ccc(NC(=O)OCc2ccc(Cl)cc2)cc1 [Compound 340, (4-chlorophenyl)methyl N-(4-{[N-methyl-1-(5-methyl-1,3-oxazol-4-yl)formamido]methyl}phenyl)carbamate]
11.85	21.9	O=C(Nc1ccc(CNC(=O)c2ocnc2C2CC2)cc1)OCc1ccc(Cl)cc1 [Compound 343, (4-chlorophenyl)methyl N-(4-{[(4-cyclopropyl-1,3-oxazol-5-yl)formamido]methyl}phenyl)carbamate]
13.04	34	Cc1noc(Cc2ccc(NC(=O)OCc3ccc(Cl)cc3)cc2)n1 [Compound 344, (4-chlorophenyl)methyl N-{4-[(3-methyl-1,2,4-oxadiazol-5-yl)methyl]phenyl}carbamate]
13.49	20.3	Cn1nc(C(F)F)cc1C(=O)NCc1ccc(NC(=O)OCc2ccc(Cl)cc2)cc1 [Compound 345, (4-chlorophenyl)methyl N-[4-({[5-(difluoromethyl)-2-methylpyrazol-3-yl]formamido}methyl)phenyl]carbamate]
